In ChEMBL document CHEMBL4507325 (2021):

What was measured:
Details in all cases: Compound concentration 10.0 uM
[1] = biological target: 5-hydroxytryptamine receptor 7 (Homo sapiens) (UniProt P34969)
[2] = biological target: Beta-1 adrenergic receptor (Homo sapiens) (UniProt P08588)
[3] = biological target: 5-hydroxytryptamine receptor 2A (Homo sapiens) (UniProt P28223)
[4] = biological target: Alpha-2B adrenergic receptor (Homo sapiens) (UniProt P18089)
[5] = biological target: 5-hydroxytryptamine receptor 2C (Homo sapiens) (UniProt P28335)
[6] = biological target: Alpha-2A adrenergic receptor (Homo sapiens) (UniProt P08913)
[7] = biological target: Beta-2 adrenergic receptor (Homo sapiens) (UniProt P07550)
[8] = biological target: Mu-type opioid receptor (Homo sapiens) (UniProt P35372)
[9] = biological target: Type-1 angiotensin II receptor (Homo sapiens) (UniProt P30556)
[10] = biological target: D(1A) dopamine receptor (Homo sapiens) (UniProt P21728)
[11] = biological target: Mu-type opioid receptor (Homo sapiens) (UniProt P35372); remark: listed apart in the source
[12] = biological target: 5-hydroxytryptamine receptor 3A (Homo sapiens) (UniProt P46098)
[13] = biological target: 5-hydroxytryptamine receptor 6 (Homo sapiens) (UniProt P50406)
[14] = biological target: Estrogen receptor (Homo sapiens) (UniProt P03372)
[15] = biological target: Muscarinic acetylcholine receptor M3 (Homo sapiens) (UniProt P20309)
[16] = biological target: Alpha-2C adrenergic receptor (Homo sapiens) (UniProt P18825)
[17] = biological target: Sodium-dependent noradrenaline transporter (Homo sapiens) (UniProt P23975)
[18] = biological target: Motilin receptor (Homo sapiens) (UniProt O43193)
[19] = biological target: 5-hydroxytryptamine receptor 2B (Homo sapiens) (UniProt P41595)
[20] = biological target: Adenosine receptor A1 (Homo sapiens) (UniProt P30542)
[21] = biological target: Cannabinoid receptor 2 (Homo sapiens) (UniProt P34972)
[22] = biological target: D(3) dopamine receptor (Homo sapiens) (UniProt P35462)
[23] = biological target: 5-hydroxytryptamine receptor 1B (Homo sapiens) (UniProt P28222)
[24] = biological target: T1, GABA-A receptor; anion channel (Rattus norvegicus) (UniProt O09028+P15431+P18506+P18508+P19969+P20236+P23574+P23576+P28471+P28473+P30191+P62813+P63079+P63138+Q91ZM7+Q9ES14)
[25] = biological target: Endothelin receptor type B (Homo sapiens) (UniProt P24530)
[26] = biological target: Muscarinic acetylcholine receptor M1 (Homo sapiens) (UniProt P11229)
[27] = biological target: Histamine H1 receptor (Homo sapiens) (UniProt P35367)
[28] = biological target: Alpha-2B adrenergic receptor (Homo sapiens) (UniProt P18089); remark: listed apart in the source
[29] = biological target: Histamine H2 receptor (Homo sapiens) (UniProt P25021)
[30] = biological target: Histamine H1 receptor (Homo sapiens) (UniProt P35367); remark: listed apart in the source
[31] = biological target: T1, GABA-A receptor; anion channel (Rattus norvegicus); remark: listed apart in the source
[32] = biological target: B2 bradykinin receptor (Homo sapiens) (UniProt P30411)
[33] = biological target: D(2) dopamine receptor (Homo sapiens) (UniProt P14416)
[34] = biological target: 5-hydroxytryptamine receptor 2B (Homo sapiens) (UniProt P41595); remark: listed apart in the source
[35] = biological target: Delta-type opioid receptor (Homo sapiens) (UniProt P41143)
[36] = biological target: Alpha-1B adrenergic receptor (Homo sapiens) (UniProt P35368)
[37] = biological target: Equilibrative nucleoside transporter 1/2/3/4 (Homo sapiens) (UniProt Q99808+Q7RTT9+Q14542+Q9BZD2)
[38] = biological target: 5-hydroxytryptamine receptor 1D (Homo sapiens) (UniProt P28221)
Rattus norvegicus = species on record: Rattus norvegicus
[39] = biological target: B1 bradykinin receptor (Homo sapiens) (UniProt P46663)
[40] = biological target: Kappa-type opioid receptor (Homo sapiens) (UniProt P41145)
[41] = biological target: Cannabinoid receptor 1 (Homo sapiens) (UniProt P21554)
[42] = biological target: Beta-3 adrenergic receptor (Homo sapiens) (UniProt P13945)
[43] = biological target: Glucocorticoid receptor (Homo sapiens) (UniProt P04150)
[44] = biological target: Histamine H3 receptor (Homo sapiens) (UniProt Q9Y5N1)

Mu-type opioid receptor (Homo sapiens), sequence (P35372 whole entry): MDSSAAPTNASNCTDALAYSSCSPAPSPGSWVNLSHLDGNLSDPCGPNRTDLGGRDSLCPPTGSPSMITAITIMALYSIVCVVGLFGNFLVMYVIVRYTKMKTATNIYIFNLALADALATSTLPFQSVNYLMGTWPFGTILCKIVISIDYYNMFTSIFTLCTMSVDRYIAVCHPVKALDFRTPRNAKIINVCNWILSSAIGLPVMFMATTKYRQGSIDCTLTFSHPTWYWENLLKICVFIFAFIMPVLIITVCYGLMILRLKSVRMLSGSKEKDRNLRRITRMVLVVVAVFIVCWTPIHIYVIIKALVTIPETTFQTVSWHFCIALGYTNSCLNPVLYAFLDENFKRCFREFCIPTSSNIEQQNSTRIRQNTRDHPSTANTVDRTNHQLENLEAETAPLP
5-hydroxytryptamine receptor 2B (Homo sapiens), sequence (P41595 whole entry): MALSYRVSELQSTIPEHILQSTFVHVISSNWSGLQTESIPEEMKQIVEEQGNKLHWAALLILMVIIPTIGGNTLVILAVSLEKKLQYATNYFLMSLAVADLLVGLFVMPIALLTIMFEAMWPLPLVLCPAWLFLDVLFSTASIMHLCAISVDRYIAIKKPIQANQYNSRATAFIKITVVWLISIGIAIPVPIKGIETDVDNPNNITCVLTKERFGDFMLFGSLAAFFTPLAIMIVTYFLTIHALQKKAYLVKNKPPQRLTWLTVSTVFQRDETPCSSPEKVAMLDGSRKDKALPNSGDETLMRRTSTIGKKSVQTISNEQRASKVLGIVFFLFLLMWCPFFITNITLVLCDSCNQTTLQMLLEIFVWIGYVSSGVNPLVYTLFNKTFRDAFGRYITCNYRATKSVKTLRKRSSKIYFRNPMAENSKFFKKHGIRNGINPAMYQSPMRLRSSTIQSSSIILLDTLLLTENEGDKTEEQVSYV
Histamine H1 receptor (Homo sapiens), sequence (P35367 whole entry): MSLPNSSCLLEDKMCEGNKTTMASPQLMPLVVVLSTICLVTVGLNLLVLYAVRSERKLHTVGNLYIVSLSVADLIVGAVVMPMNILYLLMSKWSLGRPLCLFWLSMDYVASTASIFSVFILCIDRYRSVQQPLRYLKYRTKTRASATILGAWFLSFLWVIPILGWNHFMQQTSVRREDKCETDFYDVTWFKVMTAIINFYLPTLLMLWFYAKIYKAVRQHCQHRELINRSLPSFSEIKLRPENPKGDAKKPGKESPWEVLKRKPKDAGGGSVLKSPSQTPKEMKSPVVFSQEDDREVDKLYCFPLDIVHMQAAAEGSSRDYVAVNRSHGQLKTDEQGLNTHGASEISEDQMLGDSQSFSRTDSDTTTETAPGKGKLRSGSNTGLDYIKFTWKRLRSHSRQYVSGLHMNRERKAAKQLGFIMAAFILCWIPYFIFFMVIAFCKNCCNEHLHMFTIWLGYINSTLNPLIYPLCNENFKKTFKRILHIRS
Alpha-2B adrenergic receptor (Homo sapiens), sequence (P18089 whole entry): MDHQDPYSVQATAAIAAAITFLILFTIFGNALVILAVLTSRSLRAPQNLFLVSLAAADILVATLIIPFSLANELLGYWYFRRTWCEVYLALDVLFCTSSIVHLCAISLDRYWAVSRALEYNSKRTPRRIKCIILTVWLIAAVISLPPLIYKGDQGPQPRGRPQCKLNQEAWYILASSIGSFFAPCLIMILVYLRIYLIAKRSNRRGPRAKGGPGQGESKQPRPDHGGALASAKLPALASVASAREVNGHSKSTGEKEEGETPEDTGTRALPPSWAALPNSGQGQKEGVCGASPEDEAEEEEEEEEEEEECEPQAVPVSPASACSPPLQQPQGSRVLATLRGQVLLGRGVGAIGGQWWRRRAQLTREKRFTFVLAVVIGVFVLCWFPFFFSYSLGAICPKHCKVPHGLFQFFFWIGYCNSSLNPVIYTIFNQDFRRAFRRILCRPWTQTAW
Beta-1 adrenergic receptor (Homo sapiens), sequence (P08588 whole entry, looked up): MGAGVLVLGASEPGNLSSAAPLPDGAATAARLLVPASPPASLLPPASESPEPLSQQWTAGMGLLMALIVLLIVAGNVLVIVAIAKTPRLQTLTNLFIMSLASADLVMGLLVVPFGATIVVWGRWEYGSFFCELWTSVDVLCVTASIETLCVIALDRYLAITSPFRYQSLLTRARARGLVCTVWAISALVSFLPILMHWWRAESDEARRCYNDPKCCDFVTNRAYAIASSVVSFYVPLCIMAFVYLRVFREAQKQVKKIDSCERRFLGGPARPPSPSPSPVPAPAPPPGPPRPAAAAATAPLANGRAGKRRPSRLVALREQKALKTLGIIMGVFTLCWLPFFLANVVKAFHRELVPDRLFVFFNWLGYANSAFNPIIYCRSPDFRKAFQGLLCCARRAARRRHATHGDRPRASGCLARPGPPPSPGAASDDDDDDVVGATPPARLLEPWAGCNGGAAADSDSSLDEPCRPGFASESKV
5-hydroxytryptamine receptor 6 (Homo sapiens), sequence (P50406 whole entry): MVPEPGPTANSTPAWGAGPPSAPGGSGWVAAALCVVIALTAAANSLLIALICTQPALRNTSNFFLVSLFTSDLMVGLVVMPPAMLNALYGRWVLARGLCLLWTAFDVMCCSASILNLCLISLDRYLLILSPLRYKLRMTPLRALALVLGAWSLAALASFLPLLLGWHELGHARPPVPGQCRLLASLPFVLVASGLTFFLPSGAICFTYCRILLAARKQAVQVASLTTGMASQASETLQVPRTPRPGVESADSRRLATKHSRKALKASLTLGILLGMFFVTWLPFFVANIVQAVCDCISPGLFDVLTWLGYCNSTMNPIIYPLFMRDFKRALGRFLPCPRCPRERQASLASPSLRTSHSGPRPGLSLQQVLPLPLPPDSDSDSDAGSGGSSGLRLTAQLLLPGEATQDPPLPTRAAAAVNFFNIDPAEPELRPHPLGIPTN
Muscarinic acetylcholine receptor M1 (Homo sapiens), sequence (P11229 whole entry): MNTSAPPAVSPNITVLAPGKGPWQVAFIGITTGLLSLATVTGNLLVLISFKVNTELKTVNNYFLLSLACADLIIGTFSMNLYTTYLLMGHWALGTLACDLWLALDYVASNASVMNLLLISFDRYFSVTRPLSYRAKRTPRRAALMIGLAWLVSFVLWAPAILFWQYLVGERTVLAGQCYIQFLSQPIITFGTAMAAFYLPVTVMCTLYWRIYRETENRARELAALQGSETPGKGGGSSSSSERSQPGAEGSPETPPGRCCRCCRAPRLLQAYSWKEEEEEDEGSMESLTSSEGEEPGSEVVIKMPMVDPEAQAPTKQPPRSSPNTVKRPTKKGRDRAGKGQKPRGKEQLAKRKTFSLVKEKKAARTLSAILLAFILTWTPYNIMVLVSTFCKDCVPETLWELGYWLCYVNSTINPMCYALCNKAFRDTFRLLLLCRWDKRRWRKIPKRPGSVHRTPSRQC
Endothelin receptor type B (Homo sapiens), sequence (P24530 whole entry): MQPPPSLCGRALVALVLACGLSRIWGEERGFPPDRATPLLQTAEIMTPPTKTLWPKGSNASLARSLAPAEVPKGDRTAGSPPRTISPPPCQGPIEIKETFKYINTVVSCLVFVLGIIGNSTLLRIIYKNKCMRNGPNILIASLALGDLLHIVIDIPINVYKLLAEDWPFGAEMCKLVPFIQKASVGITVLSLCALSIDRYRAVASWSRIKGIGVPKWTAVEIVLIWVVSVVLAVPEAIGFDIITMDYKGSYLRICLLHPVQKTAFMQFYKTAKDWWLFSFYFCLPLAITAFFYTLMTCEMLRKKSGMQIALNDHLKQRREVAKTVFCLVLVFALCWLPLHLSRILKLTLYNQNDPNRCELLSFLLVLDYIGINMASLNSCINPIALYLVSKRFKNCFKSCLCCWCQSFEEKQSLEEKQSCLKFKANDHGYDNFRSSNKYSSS
5-hydroxytryptamine receptor 2C (Homo sapiens), sequence (P28335 whole entry): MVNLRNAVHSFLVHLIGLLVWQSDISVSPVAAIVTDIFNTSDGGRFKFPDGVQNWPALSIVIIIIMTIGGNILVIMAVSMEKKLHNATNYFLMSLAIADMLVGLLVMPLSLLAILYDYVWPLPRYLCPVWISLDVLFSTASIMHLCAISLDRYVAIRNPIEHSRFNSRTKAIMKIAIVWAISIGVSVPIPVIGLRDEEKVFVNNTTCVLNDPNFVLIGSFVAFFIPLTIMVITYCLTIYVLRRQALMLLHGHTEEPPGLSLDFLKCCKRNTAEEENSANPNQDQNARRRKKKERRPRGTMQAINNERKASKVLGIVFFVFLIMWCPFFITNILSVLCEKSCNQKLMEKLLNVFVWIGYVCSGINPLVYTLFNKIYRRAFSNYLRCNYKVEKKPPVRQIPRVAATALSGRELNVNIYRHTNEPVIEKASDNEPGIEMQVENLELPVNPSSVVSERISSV
Beta-2 adrenergic receptor (Homo sapiens), sequence (P07550 whole entry, looked up): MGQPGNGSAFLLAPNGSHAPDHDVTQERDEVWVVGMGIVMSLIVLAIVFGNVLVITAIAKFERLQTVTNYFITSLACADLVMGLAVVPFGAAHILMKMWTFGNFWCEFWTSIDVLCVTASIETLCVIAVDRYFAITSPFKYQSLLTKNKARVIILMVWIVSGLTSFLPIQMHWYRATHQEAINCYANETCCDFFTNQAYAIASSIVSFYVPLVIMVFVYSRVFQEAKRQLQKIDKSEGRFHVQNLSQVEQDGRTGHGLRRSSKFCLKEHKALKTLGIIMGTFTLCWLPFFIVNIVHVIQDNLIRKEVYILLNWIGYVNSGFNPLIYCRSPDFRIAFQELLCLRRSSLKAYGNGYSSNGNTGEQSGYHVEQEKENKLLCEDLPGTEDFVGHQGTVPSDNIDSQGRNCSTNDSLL
Cannabinoid receptor 2 (Homo sapiens), sequence (P34972 whole entry): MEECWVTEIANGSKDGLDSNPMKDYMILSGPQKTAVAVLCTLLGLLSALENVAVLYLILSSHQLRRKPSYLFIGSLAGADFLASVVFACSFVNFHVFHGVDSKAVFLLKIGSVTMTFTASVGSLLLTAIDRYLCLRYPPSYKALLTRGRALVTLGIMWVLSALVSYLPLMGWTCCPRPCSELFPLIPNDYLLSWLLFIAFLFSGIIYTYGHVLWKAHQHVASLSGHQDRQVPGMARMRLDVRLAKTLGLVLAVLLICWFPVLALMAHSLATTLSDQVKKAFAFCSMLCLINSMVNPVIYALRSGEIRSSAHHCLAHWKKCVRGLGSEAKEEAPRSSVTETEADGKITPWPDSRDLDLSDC

inhibition [1]: 13.1%
inhibition [2]: -5.52%
inhibition [3]: 1%
inhibition [4]: -2%
inhibition [5]: 0.89%
inhibition [6]: 2%
inhibition [7]: 11.2%
inhibition [8]: 0%
inhibition [9]: 7%
inhibition [10]: 7%
inhibition [11]: 20.9%
inhibition [12]: 20.3%
inhibition [13]: 13%
inhibition [14]: 6%
inhibition [15]: -7%
inhibition [16]: 6%
inhibition [17]: 22%
inhibition [18]: 4%
inhibition [19]: 1%
inhibition [20]: 27%
inhibition [21]: -5%
inhibition [22]: 14%
inhibition [23]: 4.02%
inhibition [24]: 11.3%
inhibition [25]: -9%
inhibition [26]: 8%
inhibition [27]: -2%
inhibition [28]: -8.63%
inhibition [29]: -2%
inhibition [30]: 10.3%
inhibition [31]: 4%
inhibition [32]: 1%
inhibition [33]: -5%
inhibition [34]: -0.49%
inhibition [35]: -3%
inhibition [36]: 19.3%
inhibition [37]: 28%
inhibition [38]: 0.75%
inhibition (Rattus norvegicus): 46%
inhibition [39]: -8%
inhibition [40]: 37.5%
inhibition [41]: 16%
inhibition [42]: 15%
inhibition [43]: 13%
inhibition [44]: 3%
Structure (SMILES): Cc1ccccc1Oc1cc(-n2c(=O)cc(C(F)(F)F)[nH]c2=O)c2ccccc2c1Cl [BAY-069]
